Reference: ChEMBL document CHEMBL3352293, “Exploring in vitro and in vivo Hsp90 inhibitors activity against human protozoan parasites” (Bioorg Med Chem Lett, 2015)
pIC50: −log10 of the molar value. Calls of active or inactive are those of the source. The calls are words filed in the database; no cut-off is given here.

Tests used:
[1] = tested on: Trypanosoma brucei rhodesiense; assay: Antitrypanosomal activity against Trypanosoma brucei rhodesiense assessed as growth inhibition; format: functional, organism-based
Mus musculus = assay: Toxicity in mouse infected with Trypanosoma brucei rhodesiense assessed as death at 50 mg/kg, ip qd after 2 administeration; format: organism-based; parameters: dose 50 mg/kg, route intraperitoneal; details: in vivo
Trypanosoma cruzi = assay: Antitrypanosomal activity against Trypanosoma cruzi assessed as growth inhibition; format: functional, organism-based
Plasmodium falciparum = assay: Antiplasmodial activity against Plasmodium falciparum assessed as growth inhibition; format: functional, organism-based
L6 = assay: Cytotoxicity against rat L6 cells; format: cell-based
Giardia intestinalis = assay: Antiprotozoal activity against Giardia lamblia assessed as growth inhibition; format: functional, organism-based; details: Giardia duodenalis
[2] = tested on: Trypanosoma brucei rhodesiense; assay: In vivo […] activity against Trypanosoma brucei rhodesiense infected mouse model assessed as clear parasitaemia at 50 mg/kg, ip qd after 4 days; format: functional, organism-based; parameters: dose 50 mg/kg
[3] = tested on: Trypanosoma brucei rhodesiense; assay: Antitrypanosomal activity against Trypanosoma brucei rhodesiense infected mouse model assessed as clear parasitaemia at 50 mg/kg, ip qd for 4 days measured on day 9; format: functional, organism-based; parameters: dose 50 mg/kg
[4] = tested on: Trypanosoma brucei rhodesiense; assay: Antitrypanosomal activity against Trypanosoma brucei rhodesiense infected mouse model assessed as clear parasitaemia at 50 mg/kg, ip qd for 4 days measured on day 11; format: functional, organism-based; parameters: dose 50 mg/kg

| Compound | pIC50 [1] | Activity (Mus musculus) | pIC50 (Trypanosoma cruzi) | pIC50 (Plasmodium falciparum) | pIC50 (L6) | pIC50 (Giardia intestinalis) | Activity [2] | Activity [3] | Activity [4] |
| --- | --- | --- | --- | --- | --- | --- | --- | --- | --- |
| CCNC(=O)c1nnn(-c2cc(C(C)C)c(O)cc2O)c1-c1ccc(CNCN2CCOCC2)cc1 | 8.40 | Toxic | 4.76 | 8.40 | 6.58 | 5.35 |  |  |  |
| CCNC(=O)c1noc(-c2cc(C(C)C)c(O)cc2O)c1NC(=O)c1cc(CN2CCOCC2)on1 | 8.00 |  | 5.09 | 7.44 | 6.55 | 4.89 |  |  |  |
| CCNC(=O)c1noc2c1CN(C(=O)c1cc(C(C)C)c(O)cc1O)CC2 | 6.01 |  | 6.00 | 5.34 | 6.96 | 5.36 |  |  |  |
| CCNC(=O)c1nnn(-c2cc(C(C)C)c(O)cc2O)c1-c1ccc(CC2CCCC2)cc1 | 9.00 |  | 6.14 | 8.70 | 8.10 | 6.45 |  |  |  |
| CCNC(=O)c1nnn(-c2cc(C(C)C)c(O)cc2O)c1-c1ccc(CN2CCOCC2)cc1 | 9.00 |  | 7.57 | 9.00 | 8.70 | 7.17 |  |  |  |
| CCNC(=O)c1noc(-c2cc(C(C)C)c(O)cc2O)c1NC(=O)[C@@H]1CC[C@H](C(=O)OC)C1 | 6.12 |  | 5.84 | 7.59 | 7.40 | 5.19 |  |  |  |
| CCNC(=O)c1nnn(-c2cc(C(C)C)c(O)cc2O)c1-c1ccc(Cn2ccnc2)cc1 | 8.52 |  | 5.30 | 9.00 | 7.96 | 6.40 |  |  |  |
| CCNC(=O)c1noc(-c2cc(C(C)C)c(O)cc2O)c1NC(=O)c1ccc(OC)cc1 | 7.85 |  | 6.36 | 7.54 | 8.15 | 5.50 |  |  |  |
| CCNC(=O)c1noc(-c2cc(C(C)C)c(O)cc2O)c1NC(=O)[C@H]1CC[C@H](CNS(=O)(=O)c2ccc(F)cc2)CC1 | 6.90 |  | 5.38 | 6.93 | 6.05 | 5.12 |  |  |  |
| CCNC(=O)c1noc(-c2cc(C(C)C)c(O)cc2O)c1NC(=O)c1ccc(CN2CCOCC2)cc1 | 7.74 |  | 5.18 | 7.60 | 6.70 | 5.01 | Active | Active |  |
| Cc1ncc([N+](=O)[O-])n1CCO [METRONIDAZOLE] |  |  |  |  |  | 6.24 |  |  |  |
| O=C(Cn1ccnc1[N+](=O)[O-])NCc1ccccc1 [BENZNIDAZOLE] |  |  | 6.39 |  |  |  |  |  |  |
| CCNC(=O)c1noc(-c2cc(C(C)C)c(O)cc2O)c1NC(=O)CCN1CCOCC1 | 7.66 |  | 4.78 | 7.43 | 6.84 | 6.01 | Active |  | Active |
| CCNC(=O)c1noc(-c2cc(C(C)C)c(O)cc2O)c1NC(=O)C1CCC(OC)CC1 (centres undefined) | 8.40 |  | 5.57 | 7.92 | 7.82 | 5.09 |  |  |  |
| CCNC(=O)c1noc(-c2cc(C(C)C)c(O)cc2O)c1NC(=O)c1ccco1 | 7.92 |  | 5.86 | 7.77 | 7.60 | 5.63 |  |  |  |
| CCNC(=O)c1noc(-c2cc(C(C)C)c(O)cc2O)c1NC(=O)c1cc(CC)on1 | 7.74 |  | 6.26 | 7.46 | 7.70 | 5.39 |  |  |  |
| COc1cc([C@@H]2c3cc4c(cc3[C@H](O)[C@H]3COC(=O)[C@H]23)OCO4)cc(OC)c1OC [PODOFILOX] |  |  |  |  | 8.30 |  |  |  |  |
| CCOC(=O)c1noc2c1CN(C(=O)c1cc(C(C)C)c(O)cc1O)CC2 | 4.28 |  | 6.21 | 5.14 | 6.25 | 5.61 |  |  |  |
| Nc1nc(N)nc(Nc2ccc([As]3SCC(CO)S3)cc2)n1 (centres undefined) [MELARSOPROL] | 8.52 |  |  |  |  |  |  |  |  |
